# Assay results reported in patent US10098895B2, “Treatment of symptoms related to neurodegenerative disorders through pharmacological dermal activation of cranial nerves” (GLIA, LLC, priority 2016, dated 2018).
# Test system: essential tremor
# Assay: Example 7: essential tremor subject with contact lens discomfort
# Assay type: in vivo, human
# Procedure: A person developed persistent right hand tremors of a kinetic (non-resting) type that has been continuous over the past 6 years. […] This condition had not worsened over time. […] Initially, their doctor thought that these symptoms were stress related and they have been taking 2.5 mg of escitalopram for over 6 years. […] The subject was not on hormone replacement therapy or any other medication.
# Concomitantly, the subject suffered from uncomfortable eyes, with a sticky burning sensation and development of blurred vision after about 5-6 hours of contact lens wear. For the past 3 years, the subject was administered 1% progesterone gel (1 mg per day) by dermal application to the forehead once per night. The progesterone gel prolonged comfortable contact lens wear time with sustained visual acuity from 5-6 hours to greater than 15 hours. […] After 2 years of treatment, the benefits of progesterone dermal application persisted for at least 3 days without treatment. There was no effect of the progesterone on their tremor symptoms.
# After allowing for washout of progesterone for 3 days, they began forehead application of 0.5-0.75 mg dronabinol once daily at night.
# The dronabinol administration regimen was altered by dividing equally the once daily dose of 0.5-0.75 mg dronabinol between the conchae of the left ear, the conchae of the right ear, and the forehead. […] Comfortable contact lens wear, with ease of insertion and removal, and visual acuity extends for 15 hours or more after dronabinol application.
# Contact lens comfort wear duration was greater than 15 hours.
# In April 2017, the subject, while still being treated with 1% progesterone applied to the forehead, instituted a once-daily low dose topical testosterone applied to the forehead and ear conchae to determine if doing so would produce a beneficial impact on further tremor reduction and in particular essential tremor triggered by caffeine consumption. […] They stopped the treatment to assess whether the tremor would return to pre-testosterone treatment levels. As of August 2017, the subject is without noticeable tremor. The caffeine trigger for tremor onset, which had been recognized throughout all treatments, has not re-appeared since the completion of the 4-week testosterone treatment. The subject continues on low-dose progesterone 1% applied daily to the forehead as the only treatment.
# [1] = progesterone 0.5% to the concha of both ears
compound,measurement,setting,value
CC(=O)[C@H]1CC[C@H]2[C@@H]3CCC4=CC(=O)CC[C@]4(C)[C@H]3CC[C@]12C [progesterone],tremor symptoms,1% progesterone gel (1 mg per day) to forehead,no effect
same,comfortable contact lens wear time with sustained visual acuity,"1% progesterone gel (1 mg per day) to forehead once per night, from 5-6 hours before",greater than 15 hours
same,persistence of benefits without treatment,after 2 years of progesterone dermal application to forehead,at least 3 days
same,adverse events,"human, in vivo",no adverse events
same,routine mammography and serum hormone levels,"human, in vivo",normal
same,comfortable contact lens wear,"low dose progesterone 1% to the forehead only, daily, 12 months up to August 2017",15 h
same,tremor on maintenance treatment,maintenance dose of progesterone 1% to forehead after testosterone course,tremor-free
same,contact lens comfort wear duration,[1],greater than 15 hours
same,hand tremor,[1],subsided to the same degree as it did with dronabinol treatment
